Measured values as given in US5371102A, “Compositions and methods of inhibiting thyroid activity” (priority 1993, dated 1994).

Legend:
LPX [1] = target: T1, LPX (Bos taurus, UniProt P80025); test: LPX-catalyzed iodide ion oxidation (triiodide formation); type: biochemical, bovine; conditions: LPX, H2O2, iodide ion
T1 construct: purchased Sigma Chemical Company
Excerpt: Materials used in the examples below were obtained from the following sources. Bovine LPX, bovine liver catalase, glucose oxidase, 30% hydrogen peroxide, glucose, guaiacol, ABTS and deuterium oxide were purchased from Sigma Chemical Company. Selenium dioxide, MBI ^13 CH3 I and PBA were purchased from Aldrich Chemical Company and PBA was purified as previously described by Fieset et al., Reagents for Organic Synthesis, Vol. I, pp.135-139, John Wiley and Sons, N.Y. (1967). LPX purity was checked by PAGE, as described by Doerge, D.R., et al. in, Biochem. Pharmacol., Vol.36, pp.972-974 (1986). TPX was purified from hog thyroids obtained from a local slaughterhouse by published procedures. Doerge & Takazowa, Chemical Research in Toxicology, Vol. 3, pp. 98-101 (1990). TPX purity was determined by LC and its concentration determined spectophotometrically. Hydroperoxide concentrations were determined by iodometric titration, as described by Kolthoff, et al., in "Quantitative Chemical Analysis", Macmillan, London, pp.842-860 (1969). MMBI, and BI were synthesized by published procedures as described by Doerge, D.R., Biochem, Vol. 27, pp. 3697-3700 (1988) and were recrystallized from aqueous ethanol. MeBI was purified by distillation and DMeBI^+ was synthesized and purified by recrystallization from ethyl acetate/methanol. 1-^13 C-MMBI was synthesized from ^13 CH3 I according to the procedure disclosed by Doerge, D.R., in, J. Lab. Comp. and Radiopharm., Vol.25, pp.985-990 (1988). PPHP and PPA were prepared, purified and analyzed as previously described by Doerge, Biochem, Vol.27, p.11 (1988). The methyl ester of 1-methyl-benzimidazole-2-sulfinic acid was prepared by addition of hydrogen peroxide (5 equivalents of a 10 M solution) to MMBI (0.1 M) in methanol. […]
Inhibition of LPX activity by thiones was determined from the kinetics of iodide ion, guaiacol or ABTS oxidation assays conducted at 25° C. Kinetic parameters of suicide inactivation were determined as previously described. […]

peroxidase = test: peroxidase/H2O2/I- triiodide formation with DMIT; type: biochemical; conditions: H2O2 and I-, varying quantities of DMIT
Protocol: DMIT was synthesized according to the published method by Maier, Helv. Chim. Acta, Vol. 53, p. 1417 (1970). Varying quantities of DMIT were incubated with peroxidase, H2 O2 and I^-. Triiodide formation was observed spectrophotometrically as a function of time. […] An initial lag phase was dependent on the amount of thione used, followed by a rate increase to approximately the control rate.

LPX [2] = target: T1, LPX; test: LPX iodide ion oxidation activity after incubation and dilution; type: biochemical, bovine; conditions: LPX/hydrogen peroxide, absence of iodide ion
Excerpt: Materials used in the examples below were obtained from the following sources. Bovine LPX, bovine liver catalase, glucose oxidase, 30% hydrogen peroxide, glucose, guaiacol, ABTS and deuterium oxide were purchased from Sigma Chemical Company. Selenium dioxide, MBI ^13 CH3 I and PBA were purchased from Aldrich Chemical Company and PBA was purified as previously described by Fieset et al., Reagents for Organic Synthesis, Vol. I, pp.135-139, John Wiley and Sons, N.Y. (1967). LPX purity was checked by PAGE, as described by Doerge, D.R., et al. in, Biochem. Pharmacol., Vol.36, pp.972-974 (1986). TPX was purified from hog thyroids obtained from a local slaughterhouse by published procedures. Doerge & Takazowa, Chemical Research in Toxicology, Vol. 3, pp. 98-101 (1990). TPX purity was determined by LC and its concentration determined spectophotometrically. Hydroperoxide concentrations were determined by iodometric titration, as described by Kolthoff, et al., in "Quantitative Chemical Analysis", Macmillan, London, pp.842-860 (1969). MMBI, and BI were synthesized by published procedures as described by Doerge, D.R., Biochem, Vol. 27, pp. 3697-3700 (1988) and were recrystallized from aqueous ethanol. MeBI was purified by distillation and DMeBI^+ was synthesized and purified by recrystallization from ethyl acetate/methanol. 1-^13 C-MMBI was synthesized from ^13 CH3 I according to the procedure disclosed by Doerge, D.R., in, J. Lab. Comp. and Radiopharm., Vol.25, pp.985-990 (1988). PPHP and PPA were prepared, purified and analyzed as previously described by Doerge, Biochem, Vol.27, p.11 (1988). The methyl ester of 1-methyl-benzimidazole-2-sulfinic acid was prepared by addition of hydrogen peroxide (5 equivalents of a 10 M solution) to MMBI (0.1 M) in methanol. The products, MeBI and the ester, were obtained following preparative TLC on silica (Uniplate, Analtech Co., Newark, DL) using 5% methanol/chloroform as eluant.
The following experiment was performed to determine the effect of DMMBI oxidation on LPX activity. LPX (0.1 μM, final concentration) was incubated with hydrogen peroxide (100 μM), iodide ion (5 mM) and DMMBI (100 μM), as indicated in Table 2. After a 100 second incubation at 25° C., an aliquot was diluted 200-fold and the iodide ion oxidation activity determined. Values shown in Table 2, are averages +/- standard deviations (n=4) of the percentage relative to untreated LPX.

LPX and TPX = test: suicide inhibition of peroxidases (summary statements); type: biochemical

For CN1CCN(C)C1=S [DMIT, 1,3-dimethylimidazolidine-2-thione], the “inhibition of iodide ion oxidation (triiodide formation)” value (LPX [1]) was “Identical results”, the “effect on triiodide formation” value (peroxidase) was “substantially the same as reported for DMMBI in Example 1 and Ac2 MBI in Example 2” and the “loss of enzymatic activity” value (LPX [2]) was “did not cause any loss of enzymatic activity”. For the same compound, the “selectivity for iodide ion oxidation” value (LPX and TPX; alternate substrate mechanism) was “block only reactions involving iodide ion oxidation” and the suicide inhibition (LPX and TPX; summary of own examples) was “not suicide inhibitors”.
